# Patent US20200291018A1, “TAM KINASE INHIBITORS” (SYROS PHARMACEUTICALS, INC., priority 2017, published 2020)
# Counter-ions that a name gives are not always drawn.
# How the values were obtained:
# [1] = molecular target: T1, AXL (Homo sapiens, UniProt P30530); experiment: TR-FRET kinase activity assay, AXL; type: biochemical; conditions: ATP at Km, 60 minutes
# T1 sequence (P30530 26-894): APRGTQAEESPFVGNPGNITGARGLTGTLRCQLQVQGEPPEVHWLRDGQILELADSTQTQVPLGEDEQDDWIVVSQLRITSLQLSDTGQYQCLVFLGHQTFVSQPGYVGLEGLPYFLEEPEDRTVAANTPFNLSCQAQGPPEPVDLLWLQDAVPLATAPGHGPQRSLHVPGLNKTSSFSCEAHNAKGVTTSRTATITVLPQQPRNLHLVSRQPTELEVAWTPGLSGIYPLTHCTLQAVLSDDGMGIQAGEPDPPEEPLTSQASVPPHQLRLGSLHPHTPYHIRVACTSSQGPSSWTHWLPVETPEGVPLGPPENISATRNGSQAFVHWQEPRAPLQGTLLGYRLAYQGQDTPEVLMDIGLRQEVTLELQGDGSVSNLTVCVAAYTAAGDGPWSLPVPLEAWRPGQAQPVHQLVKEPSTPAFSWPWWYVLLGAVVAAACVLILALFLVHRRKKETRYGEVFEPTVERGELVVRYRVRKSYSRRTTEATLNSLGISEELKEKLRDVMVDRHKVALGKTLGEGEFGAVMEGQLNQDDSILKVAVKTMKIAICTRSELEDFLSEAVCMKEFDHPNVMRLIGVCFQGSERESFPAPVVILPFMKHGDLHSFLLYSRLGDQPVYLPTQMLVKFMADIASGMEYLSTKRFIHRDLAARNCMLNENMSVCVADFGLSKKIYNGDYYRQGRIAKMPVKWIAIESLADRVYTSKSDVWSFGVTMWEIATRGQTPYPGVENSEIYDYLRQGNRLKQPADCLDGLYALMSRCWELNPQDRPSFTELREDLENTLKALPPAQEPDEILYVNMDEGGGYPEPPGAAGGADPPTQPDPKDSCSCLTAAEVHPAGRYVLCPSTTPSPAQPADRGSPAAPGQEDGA
# Experimental: (§1) IC50 values for compound inhibition of AXL, FLT3, MERTK and TYRO3 activity were determined using a TR-FRET activity assay. A peptide substrate with a fluorescent label is phosphorylated on a tyrosine by each enzyme, where the now phosphorylated product is bound by a Europium-labeled antibody specific to that phosphorylation site. The proximity between the antibody and the substrate gives a signal known as TR-FRET. As the enzyme is inhibited by compound, less phosphorylated peptide product is made, causing a decrease in overall signal.
# (§2) Activity assays were performed in a 384-well, small volume, black microplates in an active enzyme volume of 10 uL and final developed volume of 20 uL. Final assay conditions are 50 mM HEPES pH 7.5, 10 mM MgCl2, 1 mM EGTA, 0.01% Brij 35 and 1 mM DTT, all at RT. Enzyme, substrate-labeled peptide and compound are mixed, and then the reaction is initiated with the addition of ATP at Km concentration for each enzyme. The reaction is allowed to run 60 minutes and then quenched with a 12.5 mM EDTA (ethylenediamine tetraacetic acid) solution. The plate is then developed with the addition of Europium-labeled antibody for a final volume of 20 uL and is then incubated for 30 minutes in darkness. Plates are read in a PHERASTAR® plate reader. Data are analyzed in GraphPad PRISM.
# [2] = molecular target: T2, MERTK (Homo sapiens, UniProt Q12866); experiment: TR-FRET kinase activity assay, MERTK; type: biochemical; conditions: for IC50: TR-FRET activity assay, ATP at Km, 60 minutes, read-out: Mer IC50; for Mer/Flt3 ratio (FLT3 IC50/Mer IC50): ratio calculated as FLT3 IC50/Mer IC50
# T2 sequence (Q12866 21-999): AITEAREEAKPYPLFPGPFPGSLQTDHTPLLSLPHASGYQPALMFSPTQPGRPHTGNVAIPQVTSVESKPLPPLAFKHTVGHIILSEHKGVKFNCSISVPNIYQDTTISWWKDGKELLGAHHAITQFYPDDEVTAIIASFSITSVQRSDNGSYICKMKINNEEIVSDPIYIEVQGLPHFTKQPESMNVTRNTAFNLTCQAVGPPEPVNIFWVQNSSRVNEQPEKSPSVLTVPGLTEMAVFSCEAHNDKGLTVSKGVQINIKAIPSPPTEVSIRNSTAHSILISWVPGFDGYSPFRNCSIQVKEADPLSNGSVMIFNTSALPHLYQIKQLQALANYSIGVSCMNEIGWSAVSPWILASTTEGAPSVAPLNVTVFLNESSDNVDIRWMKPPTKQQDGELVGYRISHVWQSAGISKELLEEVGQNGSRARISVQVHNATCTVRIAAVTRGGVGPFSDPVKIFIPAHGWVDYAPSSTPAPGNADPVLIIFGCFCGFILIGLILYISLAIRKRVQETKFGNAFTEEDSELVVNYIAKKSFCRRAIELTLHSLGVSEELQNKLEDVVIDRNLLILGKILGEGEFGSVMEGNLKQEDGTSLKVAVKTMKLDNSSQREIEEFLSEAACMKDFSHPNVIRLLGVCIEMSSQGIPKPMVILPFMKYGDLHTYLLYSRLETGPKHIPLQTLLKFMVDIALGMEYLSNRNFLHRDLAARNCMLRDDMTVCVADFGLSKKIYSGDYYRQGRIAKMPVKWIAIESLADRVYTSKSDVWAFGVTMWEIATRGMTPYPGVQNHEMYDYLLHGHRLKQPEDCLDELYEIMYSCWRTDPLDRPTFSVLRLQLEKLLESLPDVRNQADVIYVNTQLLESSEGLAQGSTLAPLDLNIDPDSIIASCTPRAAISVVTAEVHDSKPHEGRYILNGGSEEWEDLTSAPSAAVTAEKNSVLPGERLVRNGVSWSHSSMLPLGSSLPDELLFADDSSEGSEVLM
# Experimental: as §1, §2
SMILES,IC50 [1],IC50 [2],Mer/Flt3 ratio (FLT3 IC50/Mer IC50) [2]
CCCCNc1cc2c(cn1)c(OC1CCNCC1)ncc2[C@H]1CC[C@H](O)CC1 [Compound 107],≤ 0.1 µM,≤ 0.1 µM,++ (a ratio of between 10 and 100)
CCCCC[C@H](C)Nc1ncc2c(=O)n(C3CCOCC3)cc([C@H]3CC[C@H](O)CC3)c2n1 [Compound 108],0.1 to 1 µM,≤ 0.1 µM,+++ (a ratio of >100)
"CCCCNc1cc2c(cn1)c(=O)n(C1CCNCC1)cc2[C@H]1CC[C@H](O)CC1 [Compound 109, 6-(butylamino)-4-((1r,4r)-4-hydroxycyclohexyl)-2-(piperidin-4-yl)-2,7-naphthyridin-1(2H)-one hydrochloride]",0.1 to 1 µM,≤ 0.1 µM,++ (a ratio of between 10 and 100)
CC[C@@H](C)Nc1ncc2c(OC3CCN(C)CC3)ncc([C@H]3CC[C@H](O)CC3)c2n1 [Compound 195],0.1 to 1 µM,≤ 0.1 µM,+++ (a ratio of >100)
CCC[C@@H](C)Nc1ncc2c(OC3CCNCC3)ncc([C@H]3CC[C@H](O)CC3)c2n1 [Compound 196],0.1 to 1 µM,≤ 0.1 µM,+++ (a ratio of >100)
Cc1cccc(Nc2ncc3c(OC4CCNCC4)ncc([C@H]4CC[C@H](O)CC4)c3n2)c1 [Compound 197],≤ 0.1 µM,≤ 0.1 µM,++ (a ratio of between 10 and 100)
Cc1cc(Cl)ccc1Nc1ncc2c(OC3CCNCC3)ncc([C@H]3CC[C@H](O)CC3)c2n1 [Compound 198],1 to 10 µM,0.1 to 1 µM,+ (a ratio of >2.0 and <10)
CCCC(C)Nc1ncc2c(=O)n([C@H]3CCN(C)C[C@@H]3F)cc([C@H]3CC[C@H](O)CC3)c2n1 (stereo partly drawn) [Compound 199],1 to 10 µM,≤ 0.1 µM,+++ (a ratio of >100)
CCCC(C)Nc1ncc2c(=O)n([C@@H]3CCCN(C)C3)cc([C@H]3CC[C@H](O)CC3)c2n1 (stereo partly drawn) [Compound 200],1 to 10 µM,≤ 0.1 µM,+++ (a ratio of >100)
CCCC(C)Nc1ncc2c(=O)n(C3CCN(C4COC4)CC3)cc([C@H]3CC[C@H](O)CC3)c2n1 (stereo partly drawn) [Compound 201],0.1 to 1 µM,0.1 to 1 µM,+++ (a ratio of >100)
CC(Nc1ncc2c(OC3CCNCC3)ncc([C@H]3CC[C@H](O)CC3)c2n1)c1ccncc1 (stereo partly drawn) [Compound 202],1 to 10 µM,0.1 to 1 µM,++ (a ratio of between 10 and 100)
CCCC(C)Nc1ncc2c(OC3CCNCC3)ncc([C@H]3CC[C@H](O)CC3)c2n1 (stereo partly drawn) [Compound 203],≤ 0.1 µM,≤ 0.1 µM,+ (a ratio of >2.0 and <10)
CCC[C@@H](C)Nc1ncc2c(OC3CCNCC3)ncc([C@H]3CC[C@@H](O)CC3)c2n1 [Compound 204],0.1 to 1 µM,≤ 0.1 µM,++ (a ratio of between 10 and 100)
O[C@H]1CC[C@H](c2cnc(OC3CCNCC3)c3cnc(Nc4cccc(Cl)c4)nc32)CC1 [Compound 205],≤ 0.1 µM,≤ 0.1 µM,++ (a ratio of between 10 and 100)
O[C@H]1CC[C@H](c2cnc(OC3CCNCC3)c3cnc(Nc4ccc(Cl)cc4)nc32)CC1 [Compound 206],≤ 0.1 µM,≤ 0.1 µM,+ (a ratio of >2.0 and <10)
CCc1cccc(Nc2ncc3c(OC4CCNCC4)ncc([C@H]4CC[C@H](O)CC4)c3n2)c1 [Compound 207],≤ 0.1 µM,≤ 0.1 µM,++ (a ratio of between 10 and 100)
CCC[C@@H](C)Nc1ncc2c(OC3CCN(C)CC3)ncc([C@H]3CC[C@H](O)CC3)c2n1 [Compound 208],0.1 to 1 µM,≤ 0.1 µM,+++ (a ratio of >100)
Cc1ccc(Cl)cc1Nc1ncc2c(OC3CCNCC3)ncc([C@H]3CC[C@H](O)CC3)c2n1 [Compound 209],1 to 10 µM,0.1 to 1 µM,NS (a ratio of ≤2.0)
O[C@H]1CC[C@H](c2cnc(OC3CCNCC3)c3cnc(Nc4ccccc4)nc32)CC1 [Compound 210],≤ 0.1 µM,≤ 0.1 µM,+ (a ratio of >2.0 and <10)
O[C@H]1CC[C@H](c2cnc(OC3CCNCC3)c3cnc(NC4CCOCC4)nc32)CC1 [Compound 211],0.1 to 1 µM,≤ 0.1 µM,++ (a ratio of between 10 and 100)
CC(C)CNc1ncc2c(OC3CCNCC3)ncc([C@H]3CC[C@H](O)CC3)c2n1 [Compound 212],0.1 to 1 µM,≤ 0.1 µM,++ (a ratio of between 10 and 100)
O[C@H]1CC[C@H](c2cnc(OC3CCNCC3)c3cnc(N[C@@H]4CCOC4)nc32)CC1 [Compound 213],0.1 to 1 µM,≤ 0.1 µM,++ (a ratio of between 10 and 100)
CCCC(C)Nc1ncc2c(O[C@@H]3CCCN(C)C3)ncc([C@H]3CC[C@H](O)CC3)c2n1 (stereo partly drawn) [Compound 214],1 to 10 µM,≤ 0.1 µM,++ (a ratio of between 10 and 100)
CCOc1ncc(C2CCN(C)CC2)c2nc(N[C@@H](C)CC)ncc12 [Compound 215],1 to 10 µM,0.1 to 1 µM,++ (a ratio of between 10 and 100)
